Data published in US5089479A, “Adhesion of Mycoplasma pneumoniae and Mycoplasma hominus to sulfatide” (priority 1988, dated 1992).
“Also recorded” adds a separate entry of the source.

What was measured:
[1] = test system: M. hominus binding to sulfatide; test: Inhibition of M. hominus binding to purified sulfatide; parameters: species or system Mycoplasma hominus
[2] = biological target: M. pneumoniae binding to sulfatide; test: Inhibition of M. pneumoniae binding to sulfatide adsorbed on plastic; parameters: species or system Mycoplasma pneumoniae strain M129; settings: for inhibition of binding to sulfatide (in words): sulfatide adsorbed on plastic
Experimental: Virulent M. pneumoniae strain M129, passage 5-15, were grown and metabolically labelled with [^3 H]palmitic acid, 12-17 Ci/mole, as described by Chandler et al. in Infect. Immun. 37: 942, 1982. The organisms were passed four times through a 26 gauge needle and suspended to approximately 10^7 cpm/ml of degassed RPMI 1640 medium containing 1% bovine serum albumin and 25 mM HEPES, pH 7.3.
The binding of M. pneumoniae to purified glycolipids immobilized in microtiter plates was measured as described by Krivan et al. in Proc. Natl. Acad. Sci., op. cit. Purified glycolipids were serially diluted in 25 μl of methanol containing 0.1 μg each of the auxiliary lipids cholesterol and phosphatidylcholine. After the solutions were dried by evaporation, the wells were filled with TBS-BSA, emptied after one hour, rinsed with RPMI-BSA, and incubated with 25 μl of [^3 H]-M. pneumoniae, approximately 10^7 cpm/ml RPMI-BSA. After incubation for two hours at 37° C., unless otherwise stated, the wells were washed five times with saline and bound M. pneumoniae was quantified by scintillation counting in Aquasol. For inhibition studies, various polysaccharides were serially diluted in […] of [^3 H]-M. pneumoniae.
To obtain the results shown in FIG. 4, polysaccharides were serially diluted in 25 μl of RPMI-BSA in microtiter wells previously coated with 1 μg of purified sulfatide. Binding was determined after incubation of two hours at 37° C. with 25 μl of [^3 H]-M. pneumoniae with the indicated concentration of dextran ( .circle. ) or dextran sulfate.

[3] = test system: M. hominus adhesion to human colon adenocarcinoma cells; test: Inhibition of M. hominus adhesion to cultured human colon adenocarcinoma cells; format: cell-based
[4] = test system: M. pneumoniae adhesion to WiDr cells; test: Inhibition of M. pneumoniae adhesion to WiDr human colon adenocarcinoma cell monolayers; format: cell-based
Experimental: (§1) Adhesion of [^3 H]-M. pneumoniae to cells on glass covered slips was measured by a modification of a method previously described by Chandler et al., Infect. Immun., op. cit. WiDr human colon adenocarcinoma, ATCC CCL 218 was grown in Eagle's minimal essential medium with 10% fetal calf serum in a 5% CO2 atmosphere at 37° C. The cells were removed with trypsin and plated on 12 mm round glass coverslips in 24-well tissue culture plates and grown for three days. Control coverslips were preincubated in medium without cells. The coverslips were washed in serum-free medium, then incubated in RPMI-BSA for fifteen minutes. The medium was removed and labelled M. pneumoniae suspended in 0.5 ml of RPMI-BSA were added to each well. The plates were incubated on a rocking table for 60 minutes at 37° C. The coverslips were washed by dipping in saline six times, and the bound radioactive bacteria were determined by scintillation counting. For inhibition studies, the inhibitors were added to M. pneumoniae prior to adding the bacteria to the coverslips.
Because virulent strains of M. pneumoniae adhere to mammalian cells, monolayers of WiDr cells were used to determine if dextran sulfate inhibits adhesion of the organism. [^3 H] -labelled M. pneumoniae was incubated with WiDr cell monolayers attached to coverslips in triplicate with an without dextran sulfate, as shown in Table II. […] In each experiment, 10 μg/ml dextran sulfate inhibited more than 1 μg/ml, but 100 μg/ml dextran sulfate caused no further inhibition. Thus, maximal inhibition was obtained with approximately 10 μg/ml of dextran sulfate. Similar results were obtained with MRC5 lung fibroblasts where in three experiments a mean of 47% of M. pneumoniae adhesion was inhibited by dextran sulfate.
(§2) Adhesion of labelled M. pneumoniae to WiDr cells on glass cover slips was determined as described previously. For inhibition studies, dextran sulfate and 3'-sialyllactose were dissolved in RPMI-BSA and the pH was adjusted to 7.4 with NaOH. The inhibitors were added to wells containing washed cover slips with attached WiDr cells or blank cover slips preincubated in medium or tris-BSA. Labelled M. pneumoniae were added immediately and incubated with slow rocking for sixty minutes at 37° C. After the coverslips were washed by dipping six times in saline, bound M. pneumoniae were determined by scintillation counting in Aquasol. […] After washing to remove the unbound organisms, the bound mycoplasma were determined by scintillation counting. Binding to uncoated wells was 3% of the applied radioactivity.
Adhesion of [^3 H]-M. pneumoniae to WiDr cells growing on 13 mm glass cover slips was determined as described above. Inhibition by dextran sulfate or 3'-sialyllactose at the indicated concentrations was calculated relative to control binding determined in RPMI/BSA without inhibitors. The results are presented as percent inhibition (mean±S.D. n=4 with n=8 for determination of control binding without inhibitor).

[5] = test system: M. pneumoniae adhesion to MRC5 lung fibroblasts; test: Inhibition of M. pneumoniae adhesion to MRC5 lung fibroblasts; format: cell-based, human; settings: mean of three experiments
Experimental: as §1
Because virulent strains of M. pneumoniae adhere to mammalian cells, monolayers of WiDr cells were used to determine if dextran sulfate inhibits adhesion of the organism. [^3 H] -labelled M. pneumoniae was incubated with WiDr cell monolayers attached to coverslips in triplicate with an without dextran sulfate, as shown in Table II. […]

[6] = test system: M. pneumoniae adhesion to coverslips; test: Inhibition of nonspecific adhesion of M. pneumoniae to coverslips without cells; format: binding, Mycoplasma pneumoniae strain M129; settings: for inhibition of non-specific adhesion to coverslips (in words): coverslips preincubated in medium containing fetal calf serum
Experimental: as §1, §2

[7] = biological target: M. pneumoniae binding to laminin; test: Inhibition of M. pneumoniae binding to laminin adsorbed on plastic; parameters: species or system Mycoplasma pneumoniae strain M129
Experimental: (§3) Glycoproteins dissolved in 0.01 M sodium phosphate buffer, pH 7.4, containing 150 mM NaCl, 1 mM CaCl2, and 0.01% NaN3 were adsorbed onto plastic polyvinylchloride […] microtiter plates by incubation for 16 hours at 4° C. The unbound proteins were removed, and the wells were filled with tris-BSA and incubated for 30 minutes at room temperature. The wells were rinsed with RPMI1640 containing 25 mM HEPES, pH 7.3, and 1% bovine serum albumin. M. pneumoniae strain M129 labelled with [^3 H]-palmitate were dispersed in RPMI-BSA by passing four times through a 26 gauge needle, and 50 μl of the suspension was applied to the wells. After incubation for 60 minutes at 37° C., the wells were washed five times with saline and the labelled M. pneumoniae bound to the proteins were quantified by scintillation counting in Aquasol.
For inhibition studies, sugars in 25 μl of RPMI-BSA were added to wells coated with 10 μg/ml laminin followed by 25 μl of [^3 H]-M. pneumoniae. Binding was determined to both laminin-coated and uncoated wells in triplicate at each inhibitor concentration and in the absence of inhibitor. In some experiments, the adsorbed proteins were pretreated with neuraminidase. After adsorption of the proteins and incubation in tris-BSA, the wells were rinsed three times with 50 mM sodium acetate, pH 5.5, containing 150 mM NaCl, 5 mM CaCl2, 1 mg/ml bovine serum albumin, and 1 mM phenylmethanesulfonyl fluoride. The wells were incubated with 0.05 units/ml neuraminidase in the same buffer or with buffer without enzyme overnight at 20° C. The wells were rinsed three times with tris-BSA, and M. pneumoniae binding was determined as described above.

M. pneumoniae = M. pneumoniae adhesion to immobilized glycoproteins adsorbed on plastic; format: binding, Mycoplasma pneumoniae strain M129; settings: for M. pneumoniae adhesion to immobilized glycoprotein (in words): adsorbed on plastic; for Relative binding activity: relative to fetuin = 1.0, from amount for half maximal binding, mean of 2 or 3 experiments
Experimental: as §3, with “Aquasol. […]” for “Aquasol.”

[8] = test system: erythrocyte adhesion to M. pneumoniae; settings: relative to fetuin; Loomes et al.; cited from earlier work
[9] = test system: monoclonal antibody My-28; test: Binding of monoclonal antibody My-28 to immobilized proteins after neuraminidase; settings: neuraminidase-treated, adsorbed on plastic
Experimental: Binding of monoclonal antibody My-28 to the immobilized proteins before or after digestion with neuraminidase was determined using a 1:1000 dilution of ascites fluid in tris-BSA. After incubation for two hours at room temperature, the wells were washed three times with tris-BSA. Bound antibody was detected using goat anti-mouse IgM labelled with ^125 I by the Iodogen method.

## dextran sulfate
[1]
  inhibition of M. hominus binding to sulfatide (in words): completely inhibits binding
[2]; 1 μg sulfatide, 37° C., 2 hours
  concentration inhibiting binding to sulfatide by 50%: 0.4 µg/mL
[2]; 1 μg/ml
  inhibition of binding to sulfatide at 1 μg/ml (in words): completely abolished binding
[2]
  inhibition of binding to sulfatide (in words): potent inhibitor; also recorded: completely inhibits binding
[2]; listed as Dextran sulfate
  inhibition of binding to sulfatide (in words): inhibits M. pneumoniae binding to sulfatide
[3]
  inhibition of M. hominus adhesion (in words): partially inhibits adhesion
[4]; WiDr cells
  concentration giving maximal inhibition of adhesion: approximately 10 μg/ml
  inhibition of adhesion to WiDr cells (in words): partially inhibit; also recorded: only partially inhibited; also recorded: partially inhibits adhesion; also recorded: partial inhibition
[4]; WiDr cells, listed as Dextran sulfate
  inhibition of adhesion to WiDr cells (in words): inhibited adhesion in all three experiments
[5]
  inhibition of M. pneumoniae adhesion: 47%
[6]
  inhibition of non-specific adhesion to coverslips (in words): not by dextran sulfate
[7]; laminin adsorbed on plastic
  I.D.50, substrate laminin: > 200 µg/mL
  inhibition of binding to laminin (in words): no effect
[7]; laminin adsorbed on plastic, listed as Dextran sulfate
  inhibition of binding to laminin (in words): does not inhibit attachment on laminin

## Human α1 -acid glycoprotein: glycoprotein
M. pneumoniae
  M. pneumoniae adhesion to immobilized glycoprotein (in words): neither protein binds M. pneumoniae well
  Relative binding activity: 0.03
M. pneumoniae; listed as alpha-1-acid glycoprotein
  M. pneumoniae adhesion to immobilized glycoprotein (in words): weakly active
[8]
  inhibition of erythrocyte adhesion to M. pneumoniae (in words): inhibit erythrocyte adhesion to M. pneumoniae better than fetuin

## CC(=O)NC1C(O)CC(OC2C(O)C(CO)OC(OC3C(CO)OC(O)C(O)C3O)C2O)(C(=O)O)OC1C(O)C(O)CO (centres unmarked) [3'-sialyllactose]
[2]; oligosaccharide concentrations as sialic acid, read-out: I.D.50, substrate sulfatide
  IC50: > 5000 µM
[2]
  inhibition of binding to sulfatide (in words): Neither laminin nor 3'-sialyllactose inhibits M. pneumoniae attachment to sulfatide; also recorded: does not inhibit binding to sulfatide
[4]; WiDr cells
  inhibition of adhesion to WiDr cells (in words): partially inhibit
[4]; WiDr cells, listed as 3'-Sialyllactose
  inhibition of adhesion to WiDr cells (in words): The inhibition is dose dependent
[4]; WiDr, more than ten-fold higher than ID50 for binding to laminin, 60 min
  control adhesion remaining: 40%
[6]
  inhibition of non-specific adhesion to coverslips (in words): specifically inhibited
[6]; coverslips preincubated in tris-BSA
  inhibition of nonspecific binding to coverslips (in words): does not inhibit nonspecific binding
[7]; laminin adsorbed on plastic
  inhibition of binding to laminin (in words): inhibited by 3'-sialyllactose at comparable concentrations; also recorded: inhibit attachment of M. pneumoniae to laminin
[7]; oligosaccharide concentrations as sialic acid, read-out: I.D.50, substrate laminin
  IC50: 300 µM

B1: Human type MM glycophorin: glycoprotein (protein, UniProt P02724 20-150, looked up)
Glycophorin-A: LSTTEVAMHTSTSSSVTKSYISSQTNDTHKRDTYAATPRAHEVSEISVRTVYPPEEETGERVQLAHHFSEPEITLIIFGVMAGVIGTILLISYGIRRLIKKSPSDVKPLPSPDTDVPLSSVEIENPETSDQ
modifications: MM blood type
notes: glycoprotein
M. pneumoniae; listed as Glycophorin
  M. pneumoniae adhesion to immobilized glycoprotein (in words): weakly active
M. pneumoniae; listed as glycophorin
  M. pneumoniae adhesion to immobilized glycoprotein (in words): neither protein binds M. pneumoniae well
M. pneumoniae
  Relative binding activity: 0.06
[9]
  My-28 antibody binding after neuraminidase digestion (in words): about ten-fold less
[8]
  inhibition of erythrocyte adhesion to M. pneumoniae (in words): inhibit erythrocyte adhesion to M. pneumoniae better than fetuin
